# Legend:
# [1] = system: human embryonic stem cell derived neural stem cells (NSCs); assay: Neural stem cell proliferation assay (neurogenesis assay, ATP levels by CellTiterGlo); type: cell-based; conditions: Homo sapiens, Neural stem cell, 96 h; compound concentration at which 150% activity of control (100%) is reached; NSC proliferation by ATP (CellTiterGlo) after 4 days incubation; dose response 8 μM to 8 nM
# Description: Neural Stem Cell Proliferation Assay
# Neurogenic properties of small molecules are determined based on the proliferation of human embryonic stem cell derived neural stem cells (NSCs) which were derived via a dual smad inhibition as previously described (Chambers, S. M., et al., Highly efficient neural conversion of human ES and iPS cells by dual inhibition of SMAD signaling, Nature biotechnology, 2009. 27(3): p. 275-80.)
# Compounds respond is measured by the increase in cells based on ATP levels (Promega:CellTiterGlo®) after an incubation period of 4 days.
# NSCs are thawed and expanded over 3 passages. On the 14th day, NSCs are seeded in Polyornithin/Laminin coated 384 well plates at a cell density of 21,000 cells/cm^2 in a media volume of 38 μl.
# 4 hours after cell seeding, compound solutions are added at a volume of 2 μl. Stock solutions of the compounds (water, 5% DMSO) are diluted to obtain a dose response (11 points, dilution factor is 2), ranging from 8 μM to 8 nM. Controls are run to consistently determine the neurogenic properties of the cells: • Negative (neutral) control is cell culture Media (final DMSO concentration: 0.25%). • Positive controls are: • 1. cell culture Media+100 ng/ml FGF2 (final DMSO concentration: 0.1%) • 2. cell culture Media+20 ng/ml EGF (final DMSO concentration: 0.1%) • 3. cell culture Media+100 ng/ml Wnt3a (final DMSO concentration: 0.1%)
# After 4 days incubation at 37° C., 5% CO2, the amount of ATP per well is quantified. The ATP concentration is proportional to the cell number. ATP is quantified by using the Promega CellTiterGlo® kit. The CellTiterGlo® reagents contain a cell lysis buffer, a thermo stable luciferase (UltraGlo™ recombinant luciferase), magnesium and luciferin. Luciferin reacts with ATP producing oxyluciferin, AMP and light. The luminescence signal is proportional to the ATP content.
# The value of negative (neutral) control is determined for each assay plate by taking the average of 16 negative control wells. The neurogenic compound response is calculated for each compound as (compound/Negative Control)*100.
# The values of EC150 from the dose response curve are determined for each test compound. The EC150 is the compound concentration at which 150% activity of control (100%) is reached.
melting point,SMILES,EC (150% of control) [1]
206.5 °C,"COc1ccc(-c2cc(C#N)cc3cc(C(N)=O)n(C)c23)cc1 [Example 71, 5-Cyano-7-(4-methoxyphenyl)-1-methylindole-2-carboxamide]",0.21 µM
192 °C,"Cc1ccc(-c2cc(F)cc3c(C)c(C(N)=O)[nH]c23)cc1 [Example 74, 5-Fluoro-3-methyl-7-(4-methylphenyl)-1H-indole-2-carboxamide]",0.17 µM
270 °C,"Cc1c(C(N)=O)[nH]c2c(-c3ccncc3)cc(F)cc12 [Example 78, 5-Fluoro-3-methyl-7-pyridin-4-yl-1H-indole-2-carboxamide]",0.053 µM

# Further lines, the compound ahead of its results:
SMILES,melting point,EC (150% of control) [1]
"COc1ccc(-c2cc(C#N)cc3cc(C(N)=O)[nH]c23)cc1 [Example 72, 5-Cyano-7-(4-methoxyphenyl)-1H-indole-2-carboxamide]",255 °C,0.19 µM
"Cn1c(C(N)=O)cc2cc(C#N)cc(-c3ccc(OC(F)(F)F)cc3)c21 [Example 73, 5-Cyano-1-methyl-7-[4-(trifluoromethoxy)phenyl]indole-2-carboxamide]",176 °C,7.5 µM
"Cc1c(C(N)=O)[nH]c2c(-c3ccc(F)c(F)c3F)cc(F)cc12 [Example 75, 5-Fluoro-3-methyl-7-(2,3,4-trifluorophenyl)-1H-indole-2-carboxamide]",209 °C,0.082 µM
"COc1ccc(-c2cc(F)cc3c(C)c(C(N)=O)[nH]c23)cc1 [Example 76, 5-Fluoro-7-(4-methoxyphenyl)-3-methyl-1H-indole-2-carboxamide]",217 °C,0.009 µM
"Cc1c(C(N)=O)[nH]c2c(-c3ccc(Cl)cc3F)cc(F)cc12 [Example 77, 7-(4-Chloro-2-fluorophenyl)-5-fluoro-3-methyl-1H-indole-2-carboxamide]",216 °C,0.022 µM

# Source: patent US9464049B2, “Indole-carboxamides” (Hoffmann-La Roche Inc., priority 2013, dated 2016)
